IC50 data for 20 compounds are collected here from patent US7816522B2, “Triazolone derivatives” (Eisai Co., Ltd., priority 2006, dated 2010).

By IC50 is commonly meant the point on the concentration scale where inhibition reaches its midpoint. A low value points to greater potency.

In the experiment the target is T1, human clotting factor VIIa (Homo sapiens, UniProt P08709).
T1 construct: a human clotting factor VIIa (hereinafter, “Factor VIIa”) purified sample; purchased Enzyme Research Laboratories HFVIIa
The experiment is described as follows: Inhibitory activity against clotting factor VIIa (chromogenic substrate Spectrozyme FVIIa, TF/Factor VIIa enzyme solution). The experiment is classed as biochemical. Conditions: human Factor VIIa 5 nmol/L with human TF 10 nmol/L, room temperature 40 minutes, 405 nm. How it is done: [Inhibitory Activity Against Clotting Factor VIIa]
Dimethylsulfoxide (DMSO) solutions were prepared with compounds of the invention at concentration of 10 mmol/L (10 mmol/L compound solutions).
One packet of tris-hydroxymethylaminomethane-preset (hereinafter referred to as “Tris preset”) (Product of Sigma Corp., Catalog No. T8293), 8.8 g of sodium chloride (NaCl) and 1 g of bovine serum albumin (hereinafter abbreviated as “BSA”) were dissolved in 1 L of water to prepare a Tris-BSA buffer (100 mmol/L Tris, 0.15 mol/L NaCl, 0.1% BSA, pH 7.4).
This Tris-BSA buffer (180 μL) was added to the aforementioned 10 mmol/L compound solution (20 μL). A 10-fold dilution series was prepared for this mixture using the aforementioned Tris-BSA buffer, and solutions with the compound at concentrations of 1.0 mmol/L, 100, 10, 1, 0.1, 0.01 and 0.001 μmol/L were prepared (1.0 mmol-0.001 μmol/L compound solutions). As a control, a solution was prepared by 10-fold dilution of DMSO with the Tris-BSA buffer (hereinafter referred to as “control 10% solution”).
After dissolving one packet of Tris preset, NaCl (8.8 g) and BSA (1 g) in water (about 900 mL), there were added 1 mol/L aqueous calcium chloride (CaCl2) (15 mL) and 1 mg/mL aqueous cephalin (30 mL), and the total volume was brought to 1 L by adding water. To this solution there was added a human tissue factor (hereinafter, “TF”) sample (product of Calbiochem, Catalog No. 612151) (450 μg) to a TF sample concentration of 10 nmol/L, and then a human clotting factor VIIa (hereinafter, “Factor VIIa”) purified sample (product of Enzyme Research Laboratories, Catalog No. HFVIIa) (250 μg) was added to a Factor VIIa purified sample concentration of 5 nmol/L, to prepare an enzyme solution (100 mmol/L Tris-HCl, 0.15 mol/L NaCl, 15 mmol/L CaCl2, 30 μg/mL cephalin, 1 mg/mL BSA, 10 nmol/L TF, 5 nmol/L Factor VIIa).
To 110 μL of this enzyme solution there was added 15 μL of each of the 1.0 mmol-0.001 μmol/L compound solutions, and then 25 μL of a 1.0 mmol/L synthetic chromogenic substrate solution (Spectrozyme FVIIa, product of American Diagnostica, Catalog No. 217L) was added and the mixture was allowed to stand at room temperature for 40 minutes. Next, the amount of 4-nitroanilide released into the solution was quantitated by spectrophotometry (405 nm).
A control measurement was conducted in the same manner, using the control 10% solution instead of the compound solution.
This measurement yielded the enzyme reaction inhibition in the presence of 100 μmol/L to 0.1 nmol/L of each compound of the invention.
The enzyme reaction inhibition at each compound concentration was subjected to non-linear regression analysis, and the IC50 value for inhibitory activity of each compound against clotting factor VIIa was calculated.

T1 sequence (P08709 213-466 limits assumed): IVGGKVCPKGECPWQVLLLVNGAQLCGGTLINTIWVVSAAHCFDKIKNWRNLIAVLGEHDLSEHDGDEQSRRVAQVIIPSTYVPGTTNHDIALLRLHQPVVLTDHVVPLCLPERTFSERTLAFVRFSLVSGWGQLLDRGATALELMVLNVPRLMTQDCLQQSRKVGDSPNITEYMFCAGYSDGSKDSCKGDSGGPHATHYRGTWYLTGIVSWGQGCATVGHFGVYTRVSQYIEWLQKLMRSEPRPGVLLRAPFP
T1 sequence (P08709 61-212 limits assumed): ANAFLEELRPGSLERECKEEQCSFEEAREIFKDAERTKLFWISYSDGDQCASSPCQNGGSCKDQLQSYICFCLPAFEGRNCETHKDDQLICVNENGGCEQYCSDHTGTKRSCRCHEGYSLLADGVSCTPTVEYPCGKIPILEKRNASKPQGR
T1 sequence (P13726 33-295 partner): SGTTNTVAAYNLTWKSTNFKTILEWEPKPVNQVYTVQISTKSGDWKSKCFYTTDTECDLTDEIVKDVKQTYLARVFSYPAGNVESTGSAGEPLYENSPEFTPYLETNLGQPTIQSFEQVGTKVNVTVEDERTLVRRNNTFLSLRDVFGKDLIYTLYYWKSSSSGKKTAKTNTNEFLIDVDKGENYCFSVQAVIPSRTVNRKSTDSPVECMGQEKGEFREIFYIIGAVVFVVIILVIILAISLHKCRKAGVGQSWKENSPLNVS

On to `CCc1cc(C(Nc2ccc(C(=N)N)cc2)c2nn(-c3ncccn3)c(=O)[nH]2)cc2c1OCOC2` (racemic) [Example 27, (R) and (S)-4-{[(8-ethyl-4H-benzo[1,3]dioxin-6-yl)-(5-oxo-1-pyrimidin-2-yl-4,5-dihydro-1H-[1,2,4]triazol-3-yl)methyl]amino}benzamidine acetate], for which the IC50 came to 3.1 nM.
With `CCOc1cc(C(Nc2ccc(C(=N)N)cc2)c2nn(-c3ncccn3)c(=O)[nH]2)cc2c1OCOC2` (racemic) [Example 28, (R) and (S)-4-{[(8-ethoxy-4H-benzo[1,3]dioxin-6-yl)-(5-oxo-1-pyrimidin-2-yl-4,5-dihydro-1H-[1,2,4]triazol-3-yl)methyl]amino}benzamidine acetate] the figure was 8.9 nM.
The value for `COc1cc(C(Nc2ccc(C(=N)N)cc2)c2nn(-c3ncccc3F)c(=O)[nH]2)cc2c1OCCC2` (racemic) [Example 29, (R) and (S)-4-({[1-(3-fluoropyridin-2-yl)-5-oxo-4,5-dihydro-1H-[1,2,4]triazol-3-yl]-(8-methoxychroman-6-yl)methyl}amino)benzamidine acetate] was 2.7 nM; that for `COc1cc(C(Nc2ccc(C(=N)N)cc2)c2nn(-c3ncccc3F)c(=O)[nH]2)cc2c1OCCCO2` (racemic) [Example 30, (R) and (S)-4-({[1-(3-fluoropyridin-2-yl)-5-oxo-4,5-dihydro-1H-[1,2,4]triazol-3-yl]-(9-methoxy-3,4-dihydro-2H-benzo[b][1,4]dioxepin-7-yl)methyl}amino)benzamidine acetate] was 3.9 nM.
For `COc1cc(C(Nc2ccc(C(=N)N)cc2)c2nn(-c3ncccn3)c(=O)[nH]2)cc2c1OCC2` (racemic) [Example 31, (R) and (S)-4-{[(7-methoxy-2,3-dihydrobenzofuran-5-yl)-(5-oxo-1-pyrimidin-2-yl-4,5-dihydro-1H-[1,2,4]triazol-3-yl)methyl]amino}benzamidine acetate], the IC50 is 7.1 nM.
The value for `COc1cc(C(Nc2ccc(C(=N)N)cc2)c2nn(-c3ncccn3)c(=O)[nH]2)c(F)c2c1OCOC2` (racemic) [Example 32, (R) and (S)-4-{[(5-fluoro-8-methoxy-4H-benzo[1,3]dioxin-6-yl)-(5-oxo-1-pyrimidin-2-yl-4,5-dihydro-1H-[1,2,4]triazol-3-yl)methyl]amino}benzamidine acetate] was 11.6 nM; that for `COc1cc(C(Nc2ccc(C(=N)N)cc2)c2nn(-c3ncccn3)c(=O)[nH]2)c(F)c2c1OCCC2` (racemic) [Example 33, (R) and (S)-4-{[(5-fluoro-8-methoxychroman-6-yl)-(5-oxo-1-pyrimidin-2-yl-4,5-dihydro-1H-[1,2,4]triazol-3-yl)methyl]amino}benzamidine acetate] was 6.7 nM; that for `COc1cc(C(Nc2ccc(C(=N)N)cc2)c2nn(-c3ncccc3N)c(=O)[nH]2)cc2c1OCCCO2` (racemic) [Example 34, (R) and (S)-4-({[1-(3-aminopyridin-2-yl)-5-oxo-4,5-dihydro-1H-[1,2,4]triazol-3-yl]-(9-methoxy-3,4-dihydro-2H-benzo[b][1,4]dioxepin-7-yl)methyl}amino)benzamidine acetate] was 3 nM.
With `CCOc1cc(C(Nc2ccc(C(=N)N)cc2)c2nn(-c3ncccc3N)c(=O)[nH]2)ccc1OC` (racemic) [Example 35, (R) and (S)-4-({[1-(3-aminopyridin-2-yl)-5-oxo-4,5-dihydro-1H-[1,2,4]triazol-3-yl]-(3-ethoxy-4-methoxyphenyl)methyl}amino)benzamidine acetate] the figure was 6.8 nM.
With `COc1ccc(C(Nc2ccc(C(=N)N)cc2)c2nn(-c3ccccc3C(=O)O)c(=O)[nH]2)cc1OC` (racemic) [Example 36, (R) and (S)-2-{3-[(4-carbamimidoylphenylamino)-(3,4-dimethoxyphenyl)methyl]-5-oxo-4,5-dihydro-[1,2,4]triazol-1-yl}benzoic acid acetate], the IC50 amounted to 3.8 nM.
Consider `COc1ccc(C(Nc2ccc(C(=N)N)c(F)c2)c2nn(-c3ccccc3C(=O)O)c(=O)[nH]2)cc1OC` (racemic) [Example 37, (R) and (S)-2-{3-[(4-carbamimidoyl-3-fluorophenylamino)-(3,4-dimethoxyphenyl)methyl]-5-oxo-4,5-dihydro-[1,2,4]triazol-1-yl}benzoic acid acetate], for which half-maximal inhibition (IC50) was put at 4.4 nM.
The value for `COc1cc(C(Nc2ccc(C(=N)N)cc2)c2nn(-c3ccccc3C(=O)O)c(=O)[nH]2)cc(C)n1` (racemic) [Example 38, (R) and (S)-2-{3-[(4-carbamimidoylphenylamino)-(2-methoxy-6-methylpyridin-4-yl)methyl]-5-oxo-4,5-dihydro-[1,2,4]triazol-1-yl}benzoic acid acetate] was 7.4 nM.
With `COc1cc(C(Nc2ccc(C(=N)N)cc2)c2nn(-c3ncccn3)c(=O)[nH]2)cc(C)n1` (racemic) [Example 39, (R) and (S)-4-{[(2-methoxy-6-methyl-pyridin-4-yl)-(5-oxo-1-pyrimidin-2-yl-4,5-dihydro-1H-[1,2,4]triazol-3-yl)methyl]amino}benzamidine acetate] the figure was 20.6 nM; with `COc1cc(C(Nc2ccc(C(=N)N)cc2)c2nn(-c3ncccn3)c(=O)[nH]2)c(F)c2c1OCC2` (racemic) [Example 40, (R) and (S)-4-{[(4-fluoro-7-methoxy-2,3-dihydrobenzofuran-5-yl)-(5-oxo-1-pyrimidin-2-yl-4,5-dihydro-1H-[1,2,4]triazol-3-yl)methyl]amino}benzamidine acetate], 9 nM; with `COc1cc(C(Nc2ccc(C(=N)N)cc2)c2nn(-c3ncccn3)c(=O)[nH]2)c(F)c2c1OCCO2` (racemic) [Example 41, (R) and (S)-4-{[(5-fluoro-8-methoxy-2,3-dihydrobenzo[1,4]dioxin-6-yl)-(5-oxo-1-pyrimidin-2-yl-4,5-dihydro-1H-[1,2,4]triazol-3-yl)methyl]amino}benzamidine acetate], 6.4 nM.
With `COc1cc(C(Nc2ccc(C(=N)N)cc2)c2nn(-c3ncccn3)c(=O)[nH]2)c(F)c2c1OCCCO2` (racemic) [Example 42, (R) and (S)-4-{[(6-fluoro-9-methoxy-3,4-dihydro-2H-benzo[b][1,4]dioxepin-7-yl)-(5-oxo-1-pyrimidin-2-yl-4,5-dihydro-1H-[1,2,4]triazol-3-yl)methyl]amino}benzamidine acetate] the figure was 3.6 nM; with `Cc1cc(OC2CCN(C)CC2)cc(C(Nc2ccc(C(=N)N)cc2)c2nn(-c3ncccn3)c(=O)[nH]2)c1` (racemic) [Example 43, (R) and (S)-4-({[3-methyl-5-(1-methylpiperidin-4-yloxy)phenyl]-(5-oxo-1-pyrimidin-2-yl-4,5-dihydro-1H-[1,2,4]triazol-3-yl)methyl}amino)benzamidine diacetate], 7.9 nM; with `Cc1cc(OCC(=O)N(C)C)cc(C(Nc2ccc(C(=N)N)cc2)c2nn(-c3ncccn3)c(=O)[nH]2)c1` (racemic) [Example 44, (R) and (S)-2-{3-[(4-carbamimidoylphenylamino)-(5-oxo-1-pyrimidin-2-yl-4,5-dihydro-1H-[1,2,4]triazol-3-yl)methyl]-5-methylphenoxy}-N,N-dimethylacetamide acetate], 25.7 nM.
Take `C=Cc1cc(O[C@H]2CCOC2)cc(C(Nc2ccc(C(=N)N)cc2)c2nn(-c3ncccn3)c(=O)[nH]2)c1` (mixture of isomers) [Example 45(1), 4-[((R) and (S)-(5-oxo-1-pyrimidin-2-yl-4,5-dihydro-1H-[1,2,4]triazol-3-yl)-{3-[(S)-(tetrahydrofuran-3-yl)oxy]-5-vinylphenyl}methyl)amino]benzamidine acetate]: the midpoint of inhibition, the IC50, lay at 1.3 nM.
`C#Cc1cc(O[C@H]2CCOC2)cc(C(Nc2ccc(C(=N)N)cc2)c2nn(-c3ncccn3)c(=O)[nH]2)c1` (mixture of isomers) [Example 45(2), 4-[((R) and (S)-{3-ethynyl-5-[(S)-(tetrahydrofuran-3-yl)oxy]phenyl}-(5-oxo-1-pyrimidin-2-yl-4,5-dihydro-1H-[1,2,4]triazol-3-yl)methyl)amino]benzamidine acetate] had an IC50 of 1.5 nM.
